Experimental data: patent US8039496B2, “Therapeutic compounds” (Allergan, Inc., priority 2007, dated 2011)
Read-outs that look alike come from different tables or passages of the source.

Tests used:
hEP2 [1] = biological target: T1, hEP2 (Homo sapiens, UniProt P43116); assay: hEP2 flipr functional assay; assay type: cell-based; conditions: the 3rd table; read-out: EP2 data flipr EC50
Text: (§1) U.S. patent application Ser. No. 11/553,143, filed on Oct. 26, 2006, describes the methods used to obtain the in vitro data in the table below.

hEP2 [2] = biological target: T1, hEP2; assay: hEP2 cAMP functional assay; assay type: cell-based; conditions: the 3rd table; read-out: EP2 data cAMP EC50
Text: as §1

hEP2 [3] = biological target: T1, hEP2; assay: hEP2 binding (Ki); conditions: the 3rd table; read-out: EP2 data Ki
Text: as §1

hEP4 [4] = biological target: T2, hEP4 (Homo sapiens, UniProt P35408); assay: hEP4 flipr functional assay; assay type: cell-based; conditions: the 3rd table; read-out: EP4 data flipr EC50
Text: as §1

hEP4 [5] = biological target: T2, hEP4; assay: hEP4 binding (Ki); conditions: the 3rd table; read-out: EP4 data KI
Text: as §1

hEP3 = biological target: T3, hEP3 (Homo sapiens, UniProt P43115); assay: Other receptors: hEP3 / hEP3A; assay type: cell-based
T3 sequence (P43115 1-390): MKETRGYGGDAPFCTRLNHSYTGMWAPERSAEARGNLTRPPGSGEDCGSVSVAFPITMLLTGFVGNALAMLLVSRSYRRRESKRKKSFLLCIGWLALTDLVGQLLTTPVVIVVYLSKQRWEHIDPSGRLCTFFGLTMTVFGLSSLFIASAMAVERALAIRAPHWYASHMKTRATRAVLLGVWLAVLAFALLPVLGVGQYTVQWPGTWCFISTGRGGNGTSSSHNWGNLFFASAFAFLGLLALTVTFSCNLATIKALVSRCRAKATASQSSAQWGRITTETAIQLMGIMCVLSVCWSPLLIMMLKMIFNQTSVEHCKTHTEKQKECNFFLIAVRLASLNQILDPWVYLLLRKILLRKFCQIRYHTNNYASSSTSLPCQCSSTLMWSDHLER
Text: as §1

hDP = biological target: T4, hDP (Homo sapiens, UniProt Q13258); assay: Other receptors: hDP; assay type: cell-based; conditions: the 3rd table; read-out: Other Receptors (ED50 in nM) hDP
T4 sequence (Q13258 1-359): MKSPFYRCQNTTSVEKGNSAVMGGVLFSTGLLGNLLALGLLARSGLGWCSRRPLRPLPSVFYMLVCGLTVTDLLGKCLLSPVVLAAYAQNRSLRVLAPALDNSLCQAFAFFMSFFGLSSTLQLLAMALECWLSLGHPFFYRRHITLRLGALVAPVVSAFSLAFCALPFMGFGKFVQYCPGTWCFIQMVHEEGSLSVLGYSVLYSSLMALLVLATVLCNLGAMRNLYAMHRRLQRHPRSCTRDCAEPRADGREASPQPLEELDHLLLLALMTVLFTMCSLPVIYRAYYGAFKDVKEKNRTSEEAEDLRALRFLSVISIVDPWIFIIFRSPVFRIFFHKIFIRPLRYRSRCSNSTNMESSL
Text: as §1

hEP1 = biological target: T5, hEP1 (Homo sapiens, UniProt P34995); assay: Other receptors: hEP1; assay type: cell-based; conditions: the 3rd table; read-out: Other Receptors (ED50 in nM) hEP1
T5 sequence (P34995 1-402): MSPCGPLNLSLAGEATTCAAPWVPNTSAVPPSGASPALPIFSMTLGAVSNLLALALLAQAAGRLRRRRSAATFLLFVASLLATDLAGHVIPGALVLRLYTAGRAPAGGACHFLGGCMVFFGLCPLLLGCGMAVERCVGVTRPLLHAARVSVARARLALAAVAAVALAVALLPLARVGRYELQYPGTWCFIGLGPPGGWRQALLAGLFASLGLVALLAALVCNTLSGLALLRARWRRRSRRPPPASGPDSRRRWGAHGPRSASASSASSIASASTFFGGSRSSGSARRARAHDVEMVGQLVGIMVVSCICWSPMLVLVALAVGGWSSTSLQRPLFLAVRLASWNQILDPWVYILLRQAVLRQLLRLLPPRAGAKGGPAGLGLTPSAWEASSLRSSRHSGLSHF
Text: as §1

normotensive dogs [6] = assay: Intraocular pressure in normotensive dogs; assay type: in vivo; conditions: Canis lupus familiaris, topical, 120 h, once daily for 5 days, read-out: maximum IOP decrease from baseline (percent)
Experimental: (§2) U.S. Pat. No. 7,091,231 describes the methods used for these in vivo tests. 5-{3-[1R,2S,3R,5R)-5-Chloro-2-(3,5-dichloro-phenoxymethyl)-3-hydroxy-cyclopentyl]-propyl}-thiophene-2-carboxylic acid was tested at multiple concentrations in normotensive dogs, dosing once daily for 5 days. At 0.1%, the maximum intraocular pressure (IOP) decrease from baseline was 7.5 mmHg (48%) at 30 h; the maximum ocular surface hyperemia (OSH) score was 2.75 at 26 h. At 0.01%, the maximum IOP decrease from baseline was 7.5 mmHg (43%) at 76 h; the maximum OSH score was 2.0 at 26 h. At 0.005%, the maximum IOP decrease from baseline was 6.6 mmHg (35%) at 78 h; the maximum OSH score was 1.75 at 74 h. This compound was also tested in laser-induced hypertensive monkeys, using one single day dose. At 0.01%, the maximum IOP decrease from baseline was 20.2 mmHg (53%) at 24 h.

normotensive dogs [7] = assay: Ocular surface hyperemia in normotensive dogs; assay type: in vivo; design: scale not given here; conditions: once daily for 5 days
Experimental: as §2

[8] = test system: laser-induced hypertensive monkeys; assay: Intraocular pressure in laser-induced hypertensive monkeys; assay type: in vivo; conditions: one single day dose
Experimental: as §2

[9] = the 3rd table, read-out: Other Receptors (ED50 in nM) hEP3A

T1 sequence (P43116 whole entry): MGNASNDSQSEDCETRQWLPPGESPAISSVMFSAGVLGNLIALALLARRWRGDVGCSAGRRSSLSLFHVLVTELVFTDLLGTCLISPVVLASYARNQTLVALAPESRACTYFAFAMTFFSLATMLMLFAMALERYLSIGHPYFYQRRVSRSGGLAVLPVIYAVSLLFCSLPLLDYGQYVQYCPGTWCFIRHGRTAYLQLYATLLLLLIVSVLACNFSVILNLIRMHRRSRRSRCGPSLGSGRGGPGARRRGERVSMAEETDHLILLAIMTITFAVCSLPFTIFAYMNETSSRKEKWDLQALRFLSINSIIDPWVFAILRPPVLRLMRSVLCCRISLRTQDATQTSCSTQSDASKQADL
T2 sequence (P35408 whole entry): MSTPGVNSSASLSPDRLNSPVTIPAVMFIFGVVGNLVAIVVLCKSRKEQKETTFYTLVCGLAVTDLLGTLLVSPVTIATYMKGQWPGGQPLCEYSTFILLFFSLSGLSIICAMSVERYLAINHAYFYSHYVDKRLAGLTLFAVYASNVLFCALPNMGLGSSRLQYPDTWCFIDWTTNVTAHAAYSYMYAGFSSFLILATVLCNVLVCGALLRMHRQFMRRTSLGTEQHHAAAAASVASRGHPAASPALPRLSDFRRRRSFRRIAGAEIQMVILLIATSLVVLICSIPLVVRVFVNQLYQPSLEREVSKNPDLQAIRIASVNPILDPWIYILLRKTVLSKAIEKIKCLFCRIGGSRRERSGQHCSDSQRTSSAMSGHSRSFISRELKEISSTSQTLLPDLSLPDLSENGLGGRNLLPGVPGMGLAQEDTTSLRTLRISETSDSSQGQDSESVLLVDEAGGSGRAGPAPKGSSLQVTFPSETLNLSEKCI

Structure (SMILES)	EC50 (hEP2 [1])	EC50 (hEP2 [2])	Ki (hEP2 [3])	EC50 (hEP4 [4])	Ki (hEP4 [5])	EC50 (hEP3; [9])	EC50 (hDP)	maximum ocular surface hyperemia (OSH) score (normotensive dogs [7]; 0.1%)	inhibition in vivo at 0.1 % (normotensive dogs [6])	other results
O=C(O)c1ccc(CCC[C@@H]2[C@@H](COc3ccccc3)[C@H](O)C[C@H]2Cl)s1 [5-(3-((1R,2S,3R,5R)-5-chloro-3-hydroxy-2-(phenoxymethyl)cyclopentyl)propyl)thiophene-2-carboxylic acid]	0.235 µM	0.0034 µM	0.029 µM	8.42 µM	2.32 µM	9650 nM	9090 nM	–	–	–
Cc1cc(OC[C@@H]2[C@@H](CCCc3ccc(C(=O)O)s3)[C@H](Cl)C[C@H]2O)cc(C)c1Cl [5-(3-((1R,2S,3R,5R)-5-chloro-2-((4-chloro-3,5-dimethylphenoxy)methyl)-3-hydroxycyclopentyl)propyl)thiophene-2-carboxylic acid]	1.49 µM	0.0002 µM	0.0007 µM	> 10 µM	0.17 µM	–	7190 nM	–	–	–
O=C(O)CCC/C=C\C[C@@H]1[C@@H](COc2cc(Cl)cc(Cl)c2)[C@H](O)C[C@H]1Cl [drawing 43, (Z)-7-[(1R,2S,3R,5R)-5-Chloro-2-(3,5-dichloro-phenoxymethyl)-3-hydroxy-cyclopentyl]-hept-5-enoic acid]	–	–	–	–	–	–	–	–	–	EC50 (hEP3; the 2nd table, read-out: Other Receptors hEP3): 1260 nM
O=C(O)c1ccc(CCC[C@@H]2[C@@H](COc3cc(F)cc(F)c3)[C@H](O)C[C@H]2Cl)s1 [5-(3-((1R,2S,3R,5R)-5-chloro-2-((3,5-difluorophenoxy)methyl)-3-hydroxycyclopentyl)propyl)thiophene-2-carboxylic acid]	0.216 µM	0.0003 µM	0.003 µM	5.29 µM	1.28 µM	4140 nM	12100 nM	–	–	–
CCCc1cccc(OC[C@@H]2[C@@H](CCCc3ccc(C(=O)O)s3)[C@H](Cl)C[C@H]2O)c1 [5-(3-((1R,2S,3R,5R)-5-chloro-3-hydroxy-2-((3-propylphenoxy)methyl)cyclopentyl)propyl)thiophene-2-carboxylic acid]	0.033 µM	0.0004 µM	0.006 µM	> 10 µM	0.471 µM	6520 nM	–	–	–	EC50 (hEP1): 17900 nM
O=C(O)c1ccc(CCC[C@@H]2[C@@H](COc3cccc4c3CCCC4)[C@H](O)C[C@H]2Cl)s1 [5-(3-((1R,2S,3R,5R)-5-chloro-3-hydroxy-2-((5,6,7,8-tetrahydronaphthalen-1-yloxy)methyl)cyclopentyl)propyl)thiophene-2-carboxylic acid]	0.175 µM	0.0025 µM	0.037 µM	9.83 µM	1.46 µM	5790 nM	8620 nM	–	–	–
O=C(O)c1ccc(CCC[C@@H]2[C@@H](COc3ccc(Cl)c4ccccc34)[C@H](O)C[C@H]2Cl)s1 [5-(3-((1R,2S,3R,5R)-5-chloro-2-((4-chloronaphthalen-1-yloxy)methyl)-3-hydroxycyclopentyl)propyl)thiophene-2-carboxylic acid]	3.53 µM	0.0025 µM	0.01 µM	15 µM	1.93 µM	–	13500 nM	–	–	–
O=C(O)c1ccc(CCC[C@@H]2[C@@H](COc3cc(F)cc(C(F)(F)F)c3)[C@H](O)C[C@H]2Cl)s1 [5-(3-((1R,2S,3R,5R)-5-chloro-2-((3-fluoro-5-(trifluoromethyl)phenoxy)methyl)-3-hydroxycyclopentyl)propyl)thiophene-2-carboxylic acid]	1.15 µM	0.0002 µM	0.0024 µM	12.3 µM	0.354 µM	6820 nM	–	–	–	–
O=C(O)c1ccc(CCC[C@@H]2[C@@H](COc3cccc4ccccc34)[C@H](O)C[C@H]2Cl)s1 [5-(3-((1R,2S,3R,5R)-5-chloro-3-hydroxy-2-((naphthalen-1-yloxy)methyl)cyclopentyl)propyl)thiophene-2-carboxylic acid]	0.949 µM	0.0007 µM	0.0055 µM	> 10 µM	0.114 µM	4030 nM	4150 nM	–	–	–
CC(=O)OCc1cc(Cl)cc(OC[C@@H]2[C@@H](C/C=C\CCCC(=O)OC(C)C)[C@H](Cl)C[C@H]2O)c1 [Example 13, (Z)-Isopropyl 7-((1R,2S,3R,5R)-2-((3-(acetoxymethyl)-5-chlorophenoxy)methyl)-5-chloro-3-hydroxycyclopentyl)hept-5-enoate]	–	–	–	–	–	–	–	0.7	20%	maximum IOP decrease from baseline ([8]; 0.1%): 8.2 mmHg; maximum IOP decrease from baseline (percent) ([8]; 0.1%): 21%

More lines, main results first:

EC50 (hEP2 [1])	EC50 (hEP2 [2])	Ki (hEP2 [3])	EC50 (hEP4 [4])	Ki (hEP4 [5])	EC50 (hEP3; [9])	EC50 (hDP)	maximum ocular surface hyperemia (OSH) score (normotensive dogs [7]; 0.1%)	Structure (SMILES)	inhibition in vivo at 0.1 % (normotensive dogs [6])	other results
–	–	–	–	–	–	–	2.75	O=C(O)c1ccc(CCC[C@@H]2[C@@H](COc3cc(Cl)cc(Cl)c3)[C@H](O)C[C@H]2Cl)s1 [Example 4, 5-{3-[(1R,2S,3R,5R)-5-Chloro-2-(3,5-dichloro-phenoxymethyl)-3-hydroxy-cyclopentyl]-propyl}-thiophene-2-carboxylic acid]	48%	inhibition in vivo at 0.005 % (normotensive dogs [6]; 0.005%): 35%; inhibition in vivo at 0.01 % (normotensive dogs [6]; 0.01%): 43%; maximum ocular surface hyperemia (OSH) score (normotensive dogs [7]; 0.005%): 1.75; maximum ocular surface hyperemia (OSH) score (normotensive dogs [7]; 0.01%): 2.0; maximum IOP decrease from baseline ([8]; 0.01%): 20.2 mmHg; maximum IOP decrease from baseline (percent) ([8]; 0.01%): 53%
–	–	–	–	–	–	–	0.9	O=C(O)CCC/C=C\C[C@@H]1[C@@H](COc2cc(Cl)cc(CO)c2)[C@H](O)C[C@H]1Cl [(Z)-7-[(1R,2S,3R,5R)-5-Chloro-2-(3-chloro-5-hydroxymethyl-phenoxymethyl)-3-hydroxy-cyclopentyl]-hept-5-enoic acid]	13.5%	maximum IOP decrease from baseline ([8]; 0.1%): 8 mmHg; maximum IOP decrease from baseline (percent) ([8]; 0.1%): 21%
–	–	–	–	–	–	–	0.8	CC(C)OC(=O)CCC/C=C\C[C@@H]1[C@@H](COc2cc(Cl)cc(CO)c2)[C@H](O)C[C@H]1Cl [Example 12, (Z)-Isopropyl 7-((1R,2S,3R,5R)-5-chloro-2-((3-chloro-5-(hydroxymethyl)phenoxy)methyl)-3-hydroxycyclopentyl)hept-5-enoate]	33%	maximum IOP decrease from baseline ([8]; 0.1%): 7.4 mmHg; maximum IOP decrease from baseline (percent) ([8]; 0.1%): 21%
